Measurements reported in US11643413B2, “9-(2-oxacycloalkyl)-9H-purine-2,6-diamine derivatives and their use for the treatment of skin disorders” (UNIVERZITA PALACKEHO V OLOMOUCI, priority 2017, dated 2023).

Legend:
NIH3T3 fibroblasts = assay: Peroxidation of membrane lipids, MDA by TBA method; assay type: cell-based, mouse; details: FW = fresh weight
Method: A typical symptom associated with aging is the direct consequence of increased concentrations of reactive oxygen species and lipid peroxidation. […] MDA levels were measured using thiobarbituric acid (TBA method). […] The crude extract was centrifuged at 10,000×g for 5 minutes and 100 μl aliquots of the supernatant were mixed with 100 μl of 0.5% (w/v) TBA containing 0.1% (w/v) trichloroacetic acid. The resulting solution was then incubated for 30 min at 95° C. The samples were rapidly cooled on ice and centrifuged for 5 minutes at 1000×g. […] The newly prepared derivatives of the general formula thus have a protective function against the negative effects of reactive oxygen species that accumulate strongly in the tissues.

[1] = tested on: Salmonella typhimurium strains TA 98, TA 100, TA 1535, TA 1537; assay: Ames test (Bacterial Reverse Mutation Test), Salmonella; assay type: cell-based; details: 10-1000 μg per plate; without as well as with metabolic activation
Method: The test substance was (114) assayed for the mutagenicity by the Bacterial Reverse Mutation Test. The performed test was based on EU method B.13/14 Mutagenicity—Reverse mutation test using bacteria, which is analogous to the OECD Test Guideline No. 471. Four indicator Salmonella typhimurium strains TA 98, TA 100, TA 1535, TA 1537 and one indicator Escherichia coli WP2 uvrA strain were used. The test substance was dissolved in dimethylsulfoxide (DMSO) and assayed in doses of 10-1000 μg per plate, which were applied to plates in volume of 0.1 mL. Experiments were performed without as well as with metabolic activation with a supernatant of rat liver and a mixture of cofactors. The working procedure described is in accordance with the documents Method B.13/14, Mutagenicity: Reverse Mutation Test Using Bacteria, Council Regulation (EC) No. 440/2008. Published in O.J. L 142, 2008 and OECD Test Guideline 471, Bacterial Reverse Mutation Test. Adopted Jul. 21, 1997. In the arrangement given above, the test substance was non-mutagenic for all the used tester strains without as well as with metabolic activation.

in vivo = details: both sexes, Wistar, rat, sc
Method: The aim of the study was to investigate acute toxic effects of the test substance, after a single subcutaneous administration to Wistar rats. The testing was performed according to the methods: ČSN EN ISO 10993-11: Biologické hodnoceni zdravotnických prostředků—část 11: Zkoušky na systémovou toxicitu and OECD Test Guideline No. 420 Acute Oral Toxicity—Fixed Dose Proceduře. Adopted 17 Dec. 2001. The test substance 114 was administered in a single dose as solution in vehicle (olive oil), given subcutaneously to male and female Wistar rats. The dosing was performed sequentially. The pre-test (the sighting study) was performed with 1 female and 1 male for each dose level. The dose level of 30 mg/kg was used as the starting dose. No death of animal was recorded at the starting dose, therefore the following dose level was used (100 mg/kg). […] The presence of subcutaneously administered test substance at the dose level of 30 and 100 mg/kg was visible to second day after application. […] According to the study results the Maximum Tolerated Dose (subcutaneous) of the test substance for male and female rats is >100 mg/kg.

[2] = Calcein AM cytotoxicity, BJ; details: human, BJ foreskin fibroblasts
[3] = Calcein AM cytotoxicity, NIH-3T3; details: mouse, NIH-3T3 fibroblasts
Excerpt: (§1) One of the parameters used, as the basis for cytotoxicity assays, is the metabolic activity of viable cells. For example, a microtiter assay, which uses the Calcein AM, is now widely used to quantitate cell proliferation and cytotoxicity. […] Because only metabolically active cells cleave Calcein AM, these assays detect viable cells exclusively. The quantity of reduced Calcein AM corresponds to the number of vital cells in the culture.
(§2) Mouse fibroblasts NIH3T3; mouse immortalized bone marrow macrophages B2.4 and B10A.4, and BJ (human foreskin fibroblasts) were used for routine screening of compounds. The cells were maintained in Nunc/Corning 80 cm^2 plastic tissue culture flasks and cultured in cell culture medium (DMEM with 5 g/l glucose, 2 mM glutamine, 100 U/ml penicillin, 100 μg/ml streptomycin, 10% fetal calf serum and sodium bicarbonate).
(§3) The cell suspensions that were prepared and diluted according to the particular cell type and the expected target cell density (2.500-30.000 cells per well based on cell growth characteristics) were added by pipette (80 μl) into 96/well microtiter plates. Inoculates were allowed a pre-incubation period of 24 hours at 37° C. and 5% CO2 for stabilisation. Four-fold dilutions of the intended test concentration were added at time zero in 20 μl aliquots to the microtiter plate wells. Usually, the compound tested was evaluated at six 4-fold dilutions. […] All compound concentrations were examined in duplicates. Incubations of cells with the tested compounds lasted for 72 hours at 37° C., in 5% CO2 atmosphere and 100% humidity. At the end of the incubation period, the cells were assayed by using Calcein AM. Ten microliters of the stock solution were pipetted into each well and incubated for 1 hour. Fluorescence (FD) was measured with the Labsystem FIA Reader Fluoroscan Ascent (UK).

[4] = Calcein AM cytotoxicity, B10A.4 (first column); details: mouse, B10A.4 immortalized bone marrow macrophages
Excerpt: as §1, §2, §3

## CN(C)c1nc(NCc2ccco2)c2ncn(C3CCCCO3)c2n1 (stereo not drawn) [Compound 114, 2-(Dimethylamino)-6-furfurylamino-9-(tetrahydro-2H-pyran-2-yl)-9H-purine]
NIH3T3 fibroblasts
  MDA: 8.8 nmol/g FW
[1]
  mutagenicity: non-mutagenic
In vivo
  MTD: > 100 mg/kg
[2]
  IC50 at 72 h: > 167 µM
[3]
  IC50 at 72 h: > 167 µM
[4]
  IC50 at 72 h: > 167 µM
